In patent US20160199434A1, “COMPOSITIONS AND METHODS FOR MODULATING DNA METHYLATION” (OHIO STATE INNOVATION FOUNDATION, priority 2013, published 2016):

System: human A375 melanoma cells
Test: Tumor growth of human A375 melanoma cells implanted in SCID mice
Format: in vivo, mouse
Conditions: 19 days after palpable tumor formation, AKB-6899 17.5 mg/kg, Docetaxel 30 mg/kg
Description: During treatment, tumor growth was determined. Animals were treated with one the following combinations: vehicle/vehicle, vehicle/AKB-6899 (17.5 mg/kg), Docetaxel (30 mg/kg)/vehicle, or Docetaxel/AKB-6899. 19 days after palpable tumor formation, the tumors in the mice receiving the vehicle/AKB-6899 combination had tumors that were 74% the size of control; the tumors in the mice receiving Docetaxel/vehicle combination had tumors that were 49% the size of control; and the tumors in the mice receiving the Docetaxel/AKB-6899 combination had tumors that were 13% the size of control.

## CC(=O)O[C@@]12CO[C@@H]1C[C@H](O)[C@@]1(C)C(=O)[C@H](O)C3=C(C)[C@@H](OC(=O)[C@H](O)[C@@H](NC(=O)OC(C)(C)C)c4ccccc4)C[C@@](O)([C@@H](OC(=O)c4ccccc4)[C@H]21)C3(C)C [Docetaxel, reference compound]
  tumor size relative to control: 49%
